What was measured:
Assay type in all cases: cell-based, E. coli
[1] = tested on: strain β5366 (wild-type valS allele); assay: Zone of growth inhibition on Petri dishes, sensitivity to noncanonical amino acids; settings: 24 h at 30° C.; for effect on growth (zone of inhibition): central well with 0.1 ml of 100 mM amino acid solution
[2] = tested on: strain β5455 (valS T222P); assay: as above; settings: 24 h at 30° C.
Protocol: (§1) The strains β5455, β8144 and β8146 are tested for their sensitivity to artificial amino acids which show steric resemblance to valine. The test is carried out on dishes containing glucose of MS mineral medium supplemented with thymidine. The cells are cultured in aerobic medium (glucose MS mineral medium, 0.3 mM thymidine) for 24 h at 30° C. and diluted to 1/250 in MS mineral medium. 0.5 ml of this cell suspension is plated out onto Petri dishes containing 25 ml of glucose MS mineral medium. A well is then hollowed out at the center of the dish and filled with 0.1 ml of an amino acid solution:
(§2) The dishes are then incubated for 24 h at 30° C. and the possible appearance on the dishes of a zone of inhibition around the well is recorded. The diameters of the limited zones of growth inhibition on Petri dishes are measured: […]

[3] = tested on: strain β8144 (mutated valS); assay: as above; settings: 24 h at 30° C.
Protocol: as §1, §2

[4] = tested on: strain β8146 (mutated valS); assay: as above; settings: 24 h at 30° C.
Protocol: as §1, §2

[5] = tested on: twelve clones derived from strain β5366; assay: Growth factor test of clones from serial culture on plates with nutrient factors; settings: glucose MS mineral medium plates
Protocol: The strain β5366 carrying the thyA:Val146 missense allele on the plasmid pTS1 is cultured in glucose MS mineral medium (2 g/l, Richaud et al., 1993) supplemented with 0.3 mM of thymidine, for 24 h at 30° C. in aerobiosis. The cells are then washed twice with deoxygenated MS mineral medium. A deoxygenated nutrient medium containing 10 ml of glucose MS mineral medium supplemented with 1.5 mM of cysteine is inoculated at 1/100 using the washed cells. The cells are then cultured in anaerobiosis for 24 h at 30° C., and a fresh tube containing 10 ml of deoxygenated cysteine glucose MS mineral medium is inoculated with a 1/100 dilution of the previous culture in the stationary phase. This procedure is repeated 26 times. At the end of this serial propagation, 12 clones from the liquid culture are isolated on plates containing thymidine (0.3 mM) glucose (2 g/l) MS mineral medium, in aerobiosis, and stored in suspension in the same liquid medium at −80° C. The twelve clones are tested on plates containing glucose MS mineral medium supplemented with nutrient factors. All these clones are shown to require thymine or thymidine as a growth factor, unless cysteine is present in the culture medium, at a concentration of at least 1.5 mM.

[6] = tested on: strain β5366 (thyA:Val146); assay: Growth on cysteine diffusion gradient in Petri dishes
Text: (§3) The plasmid pTS1 thus obtained propagates the thyA:Val146 allele, in which position 146 occupied in the wild-type thyA gene by the UGC codon of cysteine is occupied by the GUA codon of valine. The plasmid pTS1 is introduced by transformation, carried out according to the method of Sambrook et al. (1989), into the E. coli K12 ΔthyA strain, β1308 (Lemeignan et al., 1993), in which the chromosomal thymidylate synthase gene, thyA, is deleted. The transformed strain carrying the thyA:Val146 plasmid allele, β5366, is shown to be incapable of growing without thymine or thymidine being added to the culture medium, as is the strain β1308 from which it derives. […] Thus, it is as though the cysteine can infiltrate into the valyl-tRNA synthetase active site to form erroneous Cys-tRNAs^Val capable of correcting the substitution of the cysteine in the thymidylate synthase active site, with valine. The excess of valine would prevent the formation of these erroneous Cys-tRNAs^Val.

[7] = tested on: strain β1308 (ΔthyA); assay: as above; settings: 30° C., glucose MS mineral medium, central well 0.1 ml of 400 mM L-cysteine
Text: as §3

[8] = tested on: modified strain β8144; assay: Phenotypic suppression by metabolic precursors of cysteine (growth factor replacement)
Text: (§4) The nutrient requirement for cysteine of the modified strains β8144 and β8146 is exploited in order to characterize metabolic precursors which may substitute for cysteine in the culture medium without giving rise to degradation by oxidation. […] However, the addition of none of these substances allows growth of the strain β1308 carrying a chromosomal deletion of the thyA gene of thymidylate synthase, thus excluding their contamination with traces of thymine or of thymidine.

[9] = tested on: modified strain β8146; assay: as above
Text: as §4

[10] = tested on: strain β5274 (thyA:Ile146); assay: Phenotypic suppression by cysteine of thyA:Ile146 strain; settings: 0.1 mM
Protocol: The plasmid pTS2 thus obtained propagates the thyA:Ile146 allele in which position 146 occupied in the wild-type thyA gene by the UGC codon of cysteine is occupied by the AUA codon of isoleucine. The strain which propagates the thyA:Ile146 plasmid allele, β5274, is shown to require the nutritional supply of thymine, of thymidine or of cysteine in excess, as was the strain β5366. The phenotypic suppression of the strain β5274 by the cysteine is abolished with 0.1 mM of isoleucine, as was that of the strain β5366 with valine. Thus, it is as though the isoleucyl-tRNA synthetase is capable of forming erroneous Cys-tRNAs^Ile in the presence of an excess of cysteine, and that this erroneous formation is prevented by the presence of an excess of isoleucine.

[11] = central well with 0.1 ml of 100 mM amino acid solution
[12] = central well with 0.1 ml of 50 mM amino acid solution

Compound: NC[C@H](N)C(=O)O [L-2,3-diaminopropionate]
- effect on growth (zone of inhibition) [1]: no effect
- diameter of zone of growth inhibition [2, 11]: 2.3 cm
- diameter of zone of growth inhibition [3, 11]: 2.7 cm
- diameter of zone of growth inhibition [4, 11]: 1.9 cm

Compound: CCC[C@H](N)C(=O)O [L-2-aminovalerate]
- effect on growth (zone of inhibition) [1]: no effect
- diameter of zone of growth inhibition [2, 11]: 2.1 cm
- diameter of zone of growth inhibition [3, 11]: 1.5 cm
- diameter of zone of growth inhibition [4, 11]: 6.7 cm

Compound: CC(S)[C@H](N)C(=O)O (stereo partly drawn) [L-3-thiol-2-aminobutyrate]
- diameter of zone of growth inhibition [1, 12]: 2.0 cm
- diameter of zone of growth inhibition [2, 12]: 4.6 cm
- diameter of zone of growth inhibition [3, 12]: 4.0 cm
- diameter of zone of growth inhibition [4, 12]: 4.0 cm

Compound: N[C@@H](CS)C(=O)O [L-cysteine]
- cysteine concentration that replaces thymine or thymidine as growth factor [5]: at least 1.5 mM
- growth on cysteine diffusion gradient ([6]; 30° C., glucose MS mineral medium, central well 0.1 ml of 400 mM L-cysteine): marginal growth
- growth on cysteine diffusion gradient [7]: no detectable growth

Compound: O=C(O)[C@@H]1CSCN1 [L-thiazolidine-4-carboxylic acid]
- replacement of cysteine as growth factor instead of thymidine or thymine ([8]; 2 mM in culture medium): capable of replacing cysteine as a growth factor
- replacement of cysteine as growth factor instead of thymidine or thymine ([9]; 2 mM in culture medium): capable of replacing cysteine as a growth factor

Compound: NC(=O)SC[C@H](N)C(=O)O [S-carbamyl-L-cysteine]
- replacement of cysteine as growth factor instead of thymidine or thymine ([8]; 3 mM in culture medium): capable of replacing cysteine as a growth factor
- replacement of cysteine as growth factor instead of thymidine or thymine ([9]; 3 mM in culture medium): capable of replacing cysteine as a growth factor

Compound: CSC[C@H](N)C(=O)O [S-methyl-L-cysteine]
- replacement of cysteine as growth factor instead of thymidine or thymine ([8]; 3 mM in culture medium): capable of replacing cysteine as a growth factor
- replacement of cysteine as growth factor instead of thymidine or thymine ([9]; 3 mM in culture medium): capable of replacing cysteine as a growth factor

Compound: CC[C@H](C)[C@H](N)C(=O)O [isoleucine]
- effect on phenotypic suppression by cysteine [10]: abolished

Compound: CC(C)[C@H](N)C(=O)O [valine]
- effect on growth on a cysteine gradient ([6]; 0.1 mM added to the medium of the Petri dishes): abolishes the growth

Compound: L-2-aminobutyrate
- effect on growth (zone of inhibition) [1]: no effect
- diameter of zone of growth inhibition [2, 11]: 5.2 cm
- diameter of zone of growth inhibition [3, 11]: 5.7 cm
- diameter of zone of growth inhibition [4, 11]: 6.7 cm
